Columns and labels:
PBMC from HIV^+ subjects = experiment: IFNγ ELISpot of PBMC from HIV+ human subjects; assay type: cell-based
Procedure: (§1) The overlapping peptide pools of FIV and HIV-1 structural and enzyme proteins were used to stimulate the […] (PBMC) and the T cells from HIV^+ subjects as previously described for epitope mapping of HIV-1 and FIV p24 and reverse transcriptase (RT) (Sanou et al., 2013; Roff et al., 2015). The individual peptides in those peptide pools with positive responses to either interferon-γ (IFNγ) production and/or T-cell proliferation were determined with IFNγ ELISpot analysis and CFSE-based CD3^+CD4^+ and CD3^+CD8^+ T-cell proliferation analyses followed by the FACS-based intracellular staining (ICS) for cytolysin (perforin) and cytotoxin (granzyme A [GrzA] and GrzB) (Sanou et al., 2013; Roff et al., 2015). Besides viral p24 and RT proteins, the identical approach was used to identify anti-HIV/FIV T-cell epitopes on viral matrix (MA), nucleocapsid (NC), protease (PR), RNAase, integrase (IN), surface envelope (SU Env), and transmembrane envelope (TM Env) (FIG. 12).
(§2) Since our goal is to develop HIV vaccine for human use, the HIV peptides (Table 10) counterpart of the cross-reactive FIV peptides shown in Table 9 were tested with PBMC and T cells from HIV^+ subjects. The immune functions analyzed were human IFNγ production by ELISpot, cytolysin/cytotoxin production by ICS, and CFSE-based proliferation of CD3^+CD4^+ and CD3^+CD8^+ T cells from HIV^+ subjects (Table 10, the first set of results). In addition, the Los Alamos National Laboratories (LANL) database was used to identify the HLA allele(s) of the HIV epitope sequence with CTL activity that can exist within the sequence of the conserved counterpart HIV peptide (Table 9, LANL CTL). The bold HLA class-I supertypes and the bold 2-digit alleles are those on the “Optimal CD8^+ CTL Epitopes” list and those without bold are alleles for potential CTL epitope. […] The HLA class II such as HLA-DRB1 has yet to be fully classified into supertypes, and therefore the 4-digit resolution nomenclatures for the HLA-DRB1 alleles are shown.
In addition, these peptides were also analyzed for IFNγ production, CD4^+ and CD8^+ T-cell proliferation, and cytolysin (perforin) and cytotoxin (granzyme A (GrzA) and GrzB)) mRNA production of PBMC or T cells from 8-30 HIV^+ human subjects. The frequency of responders is based on the individual responses of the vaccinated cats or HIV^+ human subjects after subtraction of the average of the responses of PBMC or T cells from 6-8 non-vaccinated cats or 8-20 HIV-negative human subjects.
(§3) The threshold for positive IFNγ and IL2 ELISpot responses is ≥50 spot-forming units (SFU) per 10^6 PBMC. The threshold for CFSE-based CD4^+ and CD8^+ T-cell proliferation is ≥2% CD4^+ T-cell CFSE^low or CD8^+ T-cell CFSE^low. The threshold of FACS-based intracellular cytokine staining (ICS) is ≥0.2%. […] The nine FIV peptides in black were used in the current MAP vaccine trial, whereas the 13 peptides in blue were not used. […] The MAPs and their corresponding peptide(s) were also tested for their ability to enhance or suppress in vitro FIV infection of feline PBMC (E/S of peptides and E/S of MAP).
(§4) The counterpart HIV-1 peptides of the FIV peptides were also tested for immunogenicity using PBMC and T cells from HIV^+ human subjects. […] The HRT7-1 and HRT7-2 were also tested with cells from HIV^+ subjects on ART. The threshold for positive IFNγ ELISpot response is ≥75 spot-forming units (SFU) per 10^6 PBMC. The threshold for CFSE-based CD4^+ (CD4^+ T) and CD8^+ (CD8^+ T) T-cell proliferation is ≥2% CD4^+ T-cell CFSE^low or CD8^+ T-cell CFSE^low. The threshold of intracellular cytokine staining (ICS) of FACS-based cytolysin (perforin) and cytotoxins (granzymes A and B) in CD4^+ T cells (CyCD4) and CD8^+ T cells (CyCD8) is ≥0.2%.

[1] = system: CD3^+CD8^+ T cells from HIV^+ subjects; experiment: CFSE-based CD3+CD8+ T-cell proliferation, HIV+ human subjects; conditions: for CD8, frequency of responders: FIV epitope peptide; for CD8^+ T (T-cell proliferation), frequency of responders: FIV peptides
Procedure: as §1, §2, §3
as §4, with “≥0.2%. […] The nine HIV-1 peptides in black are the counterpart FIV peptides used in the current MAP vaccine trial, whereas the 13 peptides in blue were not.” for “≥0.2%.”

| Sequence | IFNγ, frequency of responders (PBMC from HIV^+ subjects; FIV epitope peptide) | IFNγ, frequency of responders (PBMC from HIV^+ subjects; FIV peptides) | CD8, frequency of responders [1] | CD8^+ T (T-cell proliferation), frequency of responders [1] |
| --- | --- | --- | --- | --- |
| AGLRQSLEQYQVVKQ [FSU4] | — (0%-1.4% (—)) | — (0%-1.4%(—)) | — (0%-1.4% (—)) | — (0%-1.4%(—)) |
| KFLYTAFAMQELR [FTM4-3] | — (0%-1.4% (—)) | — (0%-1.4%(—)) | — (0%-1.4% (—)) | — (0%-1.4%(—)) |
| KKKSGKWRMLIDFRV [FRT3-3] | ++++ (>54% (++++)) | ++++ (>54% (++++)) | ++++ (>54% (++++)) | ++++ (>54% (++++)) |
| LLLILCLPTLVDCIRN [FTM8(20)] | — (0%-1.4% (—)) | — (0%-1.4%(—)) | ++++ (>54% (++++)) | ++++ (>54% (++++)) |
| PTDMATLIMAAPGCA [Fp4-3] | — (0%-1.4% (—)) | — (0%-1.4%(—)) | — (0%-1.4% (—)) | — (0%-1.4%(—)) |
| WRMLIDFRVLNKL [FRT3-4] | — (0%-1.4% (—)) | — (0%-1.4%(—)) | ++ (26%-40% (++)) | ++ (25.1%-40% (++)) |
